Reference: publication PMC5388777 (Frontiers in Psychiatry, 2017)
“And” between values parts separate entries of the source, which are not always exact repeats. Equal values may be shown once.

Columns and labels:
kappa opioid receptor [1] = target: T1, kappa opioid receptor (Homo sapiens, UniProt P41145); assay: biochemical
T1 construct: expressed in transfected cells; membranes prepared

delta opioid receptor [2] = target: T2, delta opioid receptor (Homo sapiens, UniProt P41143); assay: [35S]GTPγS binding, CHO cell membranes; assay type: biochemical; details: for Delta % Stim.: [35S]GTPγS binding, mean ± SEM
T2 construct: expressed in transfected cells; membranes prepared
T2 sequence (P41143 whole entry): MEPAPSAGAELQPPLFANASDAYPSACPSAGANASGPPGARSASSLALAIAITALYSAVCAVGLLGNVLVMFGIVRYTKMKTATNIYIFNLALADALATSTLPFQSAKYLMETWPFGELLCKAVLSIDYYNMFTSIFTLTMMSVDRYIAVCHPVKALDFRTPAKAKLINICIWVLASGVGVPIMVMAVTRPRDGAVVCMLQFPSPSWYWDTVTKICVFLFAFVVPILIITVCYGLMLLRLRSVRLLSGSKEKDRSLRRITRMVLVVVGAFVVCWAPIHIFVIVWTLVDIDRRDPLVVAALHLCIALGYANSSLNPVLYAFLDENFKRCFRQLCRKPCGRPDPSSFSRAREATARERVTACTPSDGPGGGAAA

kappa opioid receptor [3] = target: T1, kappa opioid receptor; assay: biochemical; details: Receptor binding Ki
delta opioid receptor [4] = target: T2, delta opioid receptor; assay: biochemical; details: Receptor binding Ki
mu opioid receptor = target: T3, mu opioid receptor (Homo sapiens, UniProt P35372); assay type: biochemical
T3 construct: expressed in transfected cells; membranes prepared
T3 sequence (P35372 whole entry): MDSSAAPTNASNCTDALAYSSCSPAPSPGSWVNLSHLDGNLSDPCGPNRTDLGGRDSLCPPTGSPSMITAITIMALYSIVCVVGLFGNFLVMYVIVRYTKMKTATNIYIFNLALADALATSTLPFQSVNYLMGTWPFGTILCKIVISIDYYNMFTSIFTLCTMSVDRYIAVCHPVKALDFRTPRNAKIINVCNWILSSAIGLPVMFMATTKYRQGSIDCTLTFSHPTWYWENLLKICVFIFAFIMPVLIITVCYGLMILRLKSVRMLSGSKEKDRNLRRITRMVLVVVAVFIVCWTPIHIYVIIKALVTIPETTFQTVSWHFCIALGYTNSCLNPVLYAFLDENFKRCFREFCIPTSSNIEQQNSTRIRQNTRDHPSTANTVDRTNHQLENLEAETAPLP

male Sprague-Dawley rats [5] = assay: Plantar test (paw withdrawal latency); assay type: in vivo; details: U-69,593 0.3 mg/kg
male ICR mice [6] = assay: Tail flick assay (thermal nociception); assay type: in vivo; details: for Tail flick latency after antagonist alone: given 24 h before vehicle, JDTic 10 mg/kg, beta-FNA 40 mg/kg s.c.; for Antinociception (%MPE) versus vehicle: 60-min post-injection, s.c., PPL-101 0.3-10 mg/kg, PPL-103 0.3-3 mg/kg
male ICR mice [7] = assay: Global activity during CPP conditioning; assay type: in vivo; details: s.c.; for Global activity versus vehicle controls: morphine 15 mg/kg (first injection), PPL-101 and PPL-103 3.0 mg/kg (first and third injections)
male Sprague-Dawley rats [8] = assay: Intravenous self-administration (FR-1 and PR schedules)
male ICR mice [9] = assay: Conditioned place preference (CPP) paradigm; assay type: in vivo; details: s.c., three drug sessions; morphine 15 mg/kg, PPL-101 1-3 mg/kg, PPL-103 0.3-3 mg/kg
non-human primates = details: ref Harris et al. unpublished observation; cited from earlier work

T1 sequence (P41145 whole entry): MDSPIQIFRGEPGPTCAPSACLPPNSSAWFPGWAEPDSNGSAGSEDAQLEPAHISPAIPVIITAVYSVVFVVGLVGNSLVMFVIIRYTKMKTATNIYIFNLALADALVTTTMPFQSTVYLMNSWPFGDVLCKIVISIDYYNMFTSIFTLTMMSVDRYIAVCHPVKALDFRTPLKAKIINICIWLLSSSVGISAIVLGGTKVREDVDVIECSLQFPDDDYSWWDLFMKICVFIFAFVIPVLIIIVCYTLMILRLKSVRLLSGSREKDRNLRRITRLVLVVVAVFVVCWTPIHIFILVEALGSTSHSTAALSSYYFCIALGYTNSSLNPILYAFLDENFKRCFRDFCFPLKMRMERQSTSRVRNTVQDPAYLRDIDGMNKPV

C[C@H]1[C@H]2Cc3ccc(O)cc3[C@]1(C)CCN2CC1CC1 [Cyclazocine, cycloproplymethyl-benzomorphan, reference compound]
Kappa % Stim. (kappa opioid receptor [1]): 80 ± 9% | Delta % Stim. (delta opioid receptor [2]): 82 ± 9% | Ki (kappa opioid receptor [3]): 0.1 ± 0.02 nM | Ki (delta opioid receptor [4]): 0.8 ± 0.05 nM | Mu % Stim. (mu opioid receptor): 33 ± 18%

C[C@@H](NC(=O)[C@@H](N)Cc1ccc(O)cc1)C(=O)NCC(=O)N(C)[C@@H](Cc1ccccc1)C(=O)NCCO [DAMGO, [D-Ala2, N-MePhe4, Gly-ol]-enkephalin, reference compound]
Kappa % Stim. (kappa opioid receptor [1]): 62 ± 21.0% | Mu % Stim. (mu opioid receptor): 100%

CC(C)[C@@H](CN1CC[C@@](C)(c2cccc(O)c2)[C@@H](C)C1)NC(=O)[C@H]1Cc2ccc(O)cc2CN1 [JDTic, (3R)-7-hydroxy-N-[(1S)-1-[[(3R,4R)-4-(3-hydroxyphenyl)-3,4-dimethyl-1-piperidinyl]methyl]-2-methylpropyl]-1,2,3,4-tetrahydro-3-isoquinoline-carboxamide]
Blockade of U-69,593-induced antinociception (male Sprague-Dawley rats [5]; JDTic 10 mg/kg single dose): able to block the antinociceptive effect U-69,593 | Antinociception (paw withdrawal latency) (male Sprague-Dawley rats [5]; JDTic 10 mg/kg single treatment one week before): by itself did not | Tail flick latency after antagonist alone (male ICR mice [6]): have no effect on tail flick latency in mice

CN1CC[C@]23c4c5ccc(O)c4O[C@H]2[C@@H](O)C=C[C@H]3[C@H]1C5 [Morphine, reference compound]
Global activity versus vehicle controls (male ICR mice [7]): increase in global activity after the first drug injection relative to vehicle controls | Global activity after third versus first drug injection (male ICR mice [7]; morphine 15 mg/kg, PPL-101 3 mg/kg): increase in activity following the third drug injection relative to the first drug injection | Time course of antinociception (%MPE) versus vehicle (male ICR mice [6]; 0.5, 1, 2, 4 h post-injection, PPL-101 0.3-10 mg/kg s.c., morphine 15 mg/kg): anticipated increase in %MPE at all the time points compared to vehicle controls | Antinociception (%MPE) versus vehicle (male ICR mice [6]; morphine 15 mg/kg): produced the maximal effect in increase in tail flick relative to vehicle controls | Effect of JDTic pretreatment on the compound's antinociception (male ICR mice [6]; JDTic 10 mg/kg s.c. 24 h before): not altered by the kappa antagonist JDTic | Effect of beta-FNA pretreatment on the compound's antinociception (male ICR mice [6]; beta-FNA 40 mg/kg s.c. 24 h before): completely inhibited by the mu opioid antagonist beta-FNA | Effect of JDTic on self-administration of the compound (male Sprague-Dawley rats [8]; 100 µg/kg/infusion, FR1TO20, JDTic 10 mg/kg i.p., seven sessions versus baseline): no significant effect of JDTic on morphine self-administration | Average responses on the morphine-associated lever (male Sprague-Dawley rats [8]; 100 µg/kg/infusion, last 3 days prior to PPL-101 self-administration, mean ± SEM): 29.0 ± 5.8 and 27.2 ± 6.1 and 32.2 ± 12.6 | Acquisition of CPP (difference score) versus vehicle controls (male ICR mice [9]): exhibited a significant CPP

CC(C1CC1)N1CCC23CCCCC2C1Cc1ccc(O)cc13 (stereo not drawn) [PPL-103, α-methyl-cyclopropylmethyl-morphinan]
Global activity versus vehicle controls (male ICR mice [7]): decreases in global activity relative to vehicle controls following the first and third drug injections | EC50 (kappa opioid receptor [1]): 9.01 ± 2.64 nM | Kappa % Stim. (kappa opioid receptor [1]): 39.8 ± 3.9% | EC50 (delta opioid receptor [2]): 2.99 ± 0.92 nM | Delta % Stim. (delta opioid receptor [2]): 41.7 ± 5.0% | Ki (kappa opioid receptor [3]): 2.47 ± 0.105 nM | Antinociception (%MPE) versus vehicle (male ICR mice [6]; morphine 15 mg/kg): potent antinociception at all doses tested | Dose giving maximal antinociception equivalent to morphine, as fraction of morphine's dose (male ICR mice [6]; mice): 1/10 | Number of infusions under PR schedule (male Sprague-Dawley rats [8]; 30-100 µg/kg/infusion i.v., versus morphine 100 µg/kg/infusion): significantly decreased compared to the morphine group | Self-administration under FR-1 schedule when substituted for morphine (male Sprague-Dawley rats [8]; 30 and 100 µg/kg/infusion i.v., versus morphine 100 µg/kg/infusion): markedly decreased as compared to responses for morphine across all test sessions | Substitution for morphine in single-dose suppression test (non-human primates): substituted for morphine | Ki (delta opioid receptor [4]): 0.29 ± 0.03 nM | Acquisition of CPP (difference score) versus vehicle controls (male ICR mice [9]): did not reveal any significant difference

COC(=O)C=CC(=O)NC1CCC2(O)C3Cc4ccc(O)c5c4C2(CCN3CC2CC2)C1O5.Cl (stereo not drawn) [beta-FNA, beta-funaltrexamine HCl, reference compound]
Tail flick latency after antagonist alone (male ICR mice [6]): have no effect on tail flick latency in mice
